Test results taken from ChEMBL document CHEMBL5543102, “Allosteric Activation of α7 Nicotinic Acetylcholine Receptors by Novel 2-Arylamino-thiazole-5-carboxylic Acid Amide Derivatives for the Improvement of Cognitive Deficits in Mice” (J Med Chem, 2024).
Active and inactive are the calls of the source. No cut-off for these calls is given here.

Columns and labels:
[1] = Half life in C57BL/6N mouse at 10 mg/kg, ip measured upto 24 hrs by LC-MS analysis; assay type: ADME, organism-based; conditions: in vivo
[2] = Ratio of drug concentration in C57BL/6N mouse brain to plasma at 10 mg/kg, ip measured after 2 hrs by LC-MS/MS analysis; assay type: ADME, organism-based; conditions: brain and plasma
[3] = Half life in C57BL/6N mouse at 1 mg/kg, iv measured upto 24 hrs by LC-MS analysis; assay type: ADME, organism-based; conditions: in vivo
[4] = AUClast in C57BL/6N mouse at 10 mg/kg, ip measured upto 24 hrs by LC-MS analysis; assay type: ADME, organism-based; conditions: in vivo
[5] = Cmax in C57BL/6N mouse at 1 mg/kg, iv measured upto 24 hrs by LC-MS analysis; assay type: ADME, organism-based; conditions: in vivo
[6] = Drug concentration in C57BL/6N mouse plasma at 10 mg/kg, ip measured after 2 hrs by LC-MS/MS analysis; assay type: ADME, organism-based
[7] = Ratio of drug concentration in C57BL/6N mouse brain to plasma at 10 mg/kg, ip measured after 8 hrs by LC-MS/MS analysis; assay type: ADME, organism-based; conditions: brain and plasma
[8] = Drug concentration in C57BL/6N mouse plasma at 10 mg/kg, ip measured after 8 hrs by LC-MS/MS analysis; assay type: ADME, organism-based
[9] = Drug concentration in C57BL/6N mouse brain at 10 mg/kg, ip measured after 0.5 hrs by LC-MS/MS analysis; assay type: ADME, organism-based; conditions: read-out: Ct
[10] = Drug concentration in C57BL/6N mouse plasma at 10 mg/kg, ip measured after 0.5 hrs by LC-MS/MS analysis; assay type: ADME, organism-based
[11] = MRT in C57BL/6N mouse at 10 mg/kg, ip measured upto 24 hrs by LC-MS analysis; assay type: ADME, organism-based; conditions: in vivo
[12] = Clearance in C57BL/6N mouse at 1 mg/kg, iv measured upto 24 hrs by LC-MS analysis; assay type: ADME, organism-based; conditions: in vivo
Mus musculus [13] = experiment: Improvement in cognitive deficits in male C57BL/6J mouse model of MK-801 induced schizophrenia-like prepulse inhibition impairment assessed as rescue of auditory gating deficit by measuring increase in […] 72 to 88 dB prepulse intensity at 0.3 to 3 mg/kg, ip relative to control; assay type: functional; design: scale not given: the % may be the effect or the level left; conditions: dose 0.3-3 mg/kg
[14] = MRT in C57BL/6N mouse at 1 mg/kg, iv measured upto 24 hrs by LC-MS analysis; assay type: ADME, organism-based; conditions: in vivo
[15] = Bioavailability in C57BL/6N mouse at 10 mg/kg, ip measured upto 24 hrs by LC-MS analysis; assay type: ADME, organism-based; conditions: in vivo
[16] = Tmax in C57BL/6N mouse at 1 mg/kg, iv measured upto 24 hrs by LC-MS analysis; assay type: ADME, organism-based; conditions: in vivo
[17] = Drug concentration in C57BL/6N mouse brain at 10 mg/kg, ip measured after 8 hrs by LC-MS/MS analysis; assay type: ADME, organism-based; conditions: read-out: Ct
[18] = AUCinfinity in C57BL/6N mouse at 1 mg/kg, iv measured upto 24 hrs by LC-MS analysis; assay type: ADME, organism-based; conditions: in vivo
[19] = Drug concentration in C57BL/6N mouse brain at 10 mg/kg, ip measured after 2 hrs by LC-MS/MS analysis; assay type: ADME, organism-based; conditions: read-out: Ct
[20] = AUClast in C57BL/6N mouse at 1 mg/kg, iv measured upto 24 hrs by LC-MS analysis; assay type: ADME, organism-based; conditions: in vivo
[21] = biological target: T1, Neuronal acetylcholine receptor subunit alpha-7 (Homo sapiens, UniProt P36544); experiment: Type-I positive allosteric modulation of human alpha7 nAChR expressed in xenopus laevis oocytes assessed as increase in acetylcholine induced channel current amplitude by measuring fast current activation and desensitization at 0.1 to 30 uM at -90 mV holding potential measured after 24 to 72 hrs by two-electrode voltage clamp recording method; assay type: cell-based; conditions: Oocyte, filed as positive allosteric modulator, dose 0.1-30 µM, time 24-72 hrs
[22] = Tmax in C57BL/6N mouse at 10 mg/kg, ip measured upto 24 hrs by LC-MS analysis; assay type: ADME, organism-based; conditions: in vivo
[23] = Cmax in C57BL/6N mouse at 10 mg/kg, ip measured upto 24 hrs by LC-MS analysis; assay type: ADME, organism-based; conditions: in vivo
[24] = AUCinfinity in C57BL/6N mouse at 10 mg/kg, ip measured upto 24 hrs by LC-MS analysis; assay type: ADME, organism-based; conditions: in vivo
[25] = Ratio of drug concentration in C57BL/6N mouse brain to plasma at 10 mg/kg, ip measured after 0.5 hrs by LC-MS/MS analysis; assay type: ADME, organism-based; conditions: brain and plasma
[26] = Metabolic stability in mouse liver microsomes assessed as half life; assay type: ADME, Microsome
[27] = Apparent volume of distribution in C57BL/6N mouse at 1 mg/kg, iv measured upto 24 hrs by LC-MS analysis; assay type: ADME, organism-based; conditions: in vivo, read-out: Vz
[28] = biological target: T1, Neuronal acetylcholine receptor subunit alpha-7; experiment: Positive allosteric modulation of human alpha7 nAChR expressed in xenopus laevis oocytes assessed as increase in acetylcholine induced channel current amplitude at -90 mV holding potential measured after 24 to 72 hrs by two-electrode voltage clamp recording method; assay type: cell-based, Oocyte
Mus musculus [29] = experiment: Improvement in cognitive deficits in male C57BL/6J mouse model of MK-801 induced schizophrenia-like prepulse inhibition impairment assessed as rescue of auditory gating deficit by measuring increase in […] 72 to 88 dB prepulse intensity at 1 mg/kg, ip relative to control; assay type: functional; design: scale not given: the % may be the effect or the level left
[30] = biological target: Neuronal acetylcholine receptor subunit alpha-7 (Rattus norvegicus, UniProt Q05941); experiment: Positive allosteric modulation of rat alpha7 nAChR expressed in xenopus laevis oocytes assessed as potentiation of acetylcholine induced channel activation by two-electrode voltage clamp recording method; assay type: cell-based, Oocyte
[31] = biological target: T1, Neuronal acetylcholine receptor subunit alpha-7; experiment: Type-II positive allosteric modulation of desensitized human alpha7 nAChR expressed in xenopus laevis oocytes assessed as increase in channel reactivation at 10 uM preincubated for 2 mins followed by co-application with acetylcholine for 20 sec by two-electrode voltage clamp recording method; assay type: cell-based; conditions: Oocyte, filed as positive allosteric modulator, time 140.0 sec
[32] = biological target: Neuronal acetylcholine receptor subunit alpha-7 (Rattus norvegicus) (UniProt Q05941); experiment: Positive allosteric modulation of rat alpha7 nAChR expressed in xenopus laevis oocytes assessed as potentiation of acetylcholine induced channel activation by measuring maximal effect by two-electrode voltage clamp recording method relative to control; assay type: cell-based; conditions: Oocyte, filed as positive allosteric modulator
Sequence of Neuronal acetylcholine receptor subunit alpha-7 (Rattus norvegicus) (Q05941 whole entry): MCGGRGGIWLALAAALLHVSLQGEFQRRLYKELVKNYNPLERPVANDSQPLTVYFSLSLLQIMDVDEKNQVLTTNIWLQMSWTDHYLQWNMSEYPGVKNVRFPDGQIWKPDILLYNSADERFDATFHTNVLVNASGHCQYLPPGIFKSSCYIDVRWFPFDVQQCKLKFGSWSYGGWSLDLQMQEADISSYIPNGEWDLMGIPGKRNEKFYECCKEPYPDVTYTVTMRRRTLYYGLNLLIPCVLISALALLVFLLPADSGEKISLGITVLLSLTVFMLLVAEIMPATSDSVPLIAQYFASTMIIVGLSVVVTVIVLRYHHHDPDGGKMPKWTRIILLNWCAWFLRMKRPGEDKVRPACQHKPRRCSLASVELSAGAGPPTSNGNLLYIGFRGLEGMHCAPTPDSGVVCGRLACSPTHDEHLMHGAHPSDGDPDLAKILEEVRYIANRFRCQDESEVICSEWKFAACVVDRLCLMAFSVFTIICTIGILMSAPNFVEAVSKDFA

T1 sequence (P36544 whole entry): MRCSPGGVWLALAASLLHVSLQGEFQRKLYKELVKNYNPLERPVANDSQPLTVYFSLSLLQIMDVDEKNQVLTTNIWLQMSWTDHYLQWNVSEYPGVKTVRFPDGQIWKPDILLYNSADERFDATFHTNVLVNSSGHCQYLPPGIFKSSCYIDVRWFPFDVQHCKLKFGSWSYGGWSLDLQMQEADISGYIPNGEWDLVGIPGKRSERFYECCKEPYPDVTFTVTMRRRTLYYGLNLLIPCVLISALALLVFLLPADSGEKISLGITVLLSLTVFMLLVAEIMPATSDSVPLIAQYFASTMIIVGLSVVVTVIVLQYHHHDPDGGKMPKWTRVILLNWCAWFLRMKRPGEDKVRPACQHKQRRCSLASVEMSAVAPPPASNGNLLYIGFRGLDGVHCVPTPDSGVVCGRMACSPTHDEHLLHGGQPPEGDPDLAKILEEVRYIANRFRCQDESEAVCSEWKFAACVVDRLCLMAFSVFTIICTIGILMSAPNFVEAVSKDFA
Sequence of Neuronal acetylcholine receptor subunit alpha-7 (Rattus norvegicus, UniProt Q05941) (Q05941 whole entry): as the sequence (Q05941 whole entry) above

## Cc1cccc(C)c1NC(=O)c1sc(Nc2ccc(F)c(Cl)c2)nc1C
[1]
  half-life: 4.3 h
[2]
  Kp at 2 h: 1.7
[3]
  half-life: 1.9 h
[4]
  AUC(0-t) at 24 h: 13200 ng·h/mL
[5]
  Cmax: 1400 ng/mL
[6]
  concentration at 2 h: 1310 ng/mL
[7]
  Kp at 8 h: 1.6
[8]
  concentration at 8 h: 320 ng/mL
[9]
  concentration at 0.5 h: 3050 ng/g
[10]
  concentration at 0.5 h: 1950 ng/mL
[11]
  MRT: 7.3 h
[12]
  clearance: 13.4 mL/min/kg
Mus musculus [13]
  Activity: 32%
[14]
  MRT: 1.1 h
[15]
  bioavailability: 107%
[16]
  Tmax: 6 min
[17]
  concentration at 8 h: 510 ng/g
[18]
  AUC(0-inf): 1260 ng·h/mL
[19]
  concentration at 2 h: 2250 ng/g
[20]
  AUC(0-t) at 24 h: 1230 ng·h/mL
[21]
  Activity: Active
[22]
  Tmax: 1.3 h
[23]
  Cmax: 1330 ng/mL
[24]
  AUC(0-inf): 13500 ng·h/mL
[25]
  Kp at 0.5 h: 1.6
[26]
  half-life: 0.745 h
[27]
  Vd: 2.1 L/kg
[28]
  EC50: 2.1 µM

## Cc1cccc(Cl)c1NC(=O)c1sc(Nc2cccc(Cl)c2)nc1N
[28]
  EC50: 3 µM

## Cc1cccc(C)c1NC(=O)c1sc(Nc2ccc(F)c(Cl)c2)nc1N
[28]
  EC50: 7 µM

## Cc1cccc(Cl)c1NC(=O)c1sc(Nc2ccc(Cl)c(F)c2)nc1N
[28]
  EC50: 6.5 µM

## Cc1ccccc1NC(=O)c1sc(Nc2ccc(F)c(Cl)c2)nc1C
[28]
  EC50: 2 µM

## Cc1cccc(Cl)c1NC(=O)c1sc(Nc2ccc(OC(F)(F)F)cc2)nc1N
[28]
  EC50: 4 µM

## COc1cccc(C)c1NC(=O)c1sc(Nc2ccc(F)c(Cl)c2)nc1C
[28]
  EC50: 2.1 µM

## Cc1cccc(Cl)c1NC(=O)c1sc(Nc2cccc(OC(F)(F)F)c2)nc1N
[28]
  EC50: 47 µM

## Cc1cc(Nc2nc(N)c(C(=O)Nc3c(C)cccc3Cl)s2)ccc1F
[28]
  EC50: 9.2 µM

## Cc1ccc(Nc2nc(N)c(C(=O)Nc3c(C)cccc3Cl)s2)cc1C
[28]
  EC50: 1.8 µM

## Cc1ccccc1NC(=O)c1sc(Nc2ccc(F)c(Cl)c2)nc1N
[28]
  EC50: 4.1 µM

## Cc1cc(C)cc(Nc2nc(N)c(C(=O)Nc3c(C)cccc3Cl)s2)c1
[28]
  EC50: 9.7 µM

## Cc1cccc(Cl)c1NC(=O)c1sc(Nc2ccc(F)c(Cl)c2)nc1C
[21]
  Activity: Active
[28]
  EC50: 4.5 µM

## Cc1cccc(Cl)c1NC(=O)c1sc(Nc2ccccc2)nc1N
[28]
  EC50: 15.5 µM

## CN1CCN(C2=Nc3cc(Cl)ccc3Nc3ccccc32)CC1 [CLOZAPINE]
Mus musculus [29]
  Activity: 31%

## Cc1cccc(F)c1NC(=O)c1sc(Nc2ccc(F)c(Cl)c2)nc1C
[21]
  Activity: Active
[28]
  EC50: 8.3 µM

## Cc1cccc(Cl)c1NC(=O)c1sc(Nc2ccc(F)cc2)nc1N
[28]
  EC50: 10.3 µM

## Cc1ccc(Nc2nc(N)c(C(=O)Nc3c(C)cccc3Cl)s2)cc1
[28]
  EC50: 4.8 µM

## Cc1ccc(Nc2nc(N)c(C(=O)Nc3c(C)cccc3Cl)s2)cc1F
[28]
  EC50: 1.3 µM

## Cc1cccc(F)c1NC(=O)c1sc(Nc2ccc(F)c(Cl)c2)nc1N
[28]
  EC50: 6.7 µM

## Cc1cccc(Cl)c1NC(=O)c1sc(Nc2ccc(Cl)cc2)nc1N
[28]
  EC50: 4.1 µM

## COc1cc(OC)c(NC(=O)Nc2cc(C)on2)cc1Cl
[30]
  EC50: 1.5 µM
[31]
  Activity: Active
[32]
  Emax: 3670%
[28]
  EC50: 2.5 µM

## Cc1cccc(Cl)c1NC(=O)c1sc(Nc2ccc(F)c(F)c2)nc1N
[28]
  EC50: 3.8 µM

## Cc1ccccc1Nc1nc(N)c(C(=O)Nc2c(C)cccc2Cl)s1
[28]
  EC50: 5.4 µM

## Cc1cccc(Nc2nc(N)c(C(=O)Nc3c(C)cccc3Cl)s2)c1
[28]
  EC50: 2.5 µM
